Measurements as given in publication PMC9481570, “A small molecule antagonist of SMN disrupts the interaction between SMN and RNAP II” (Nature Communications, 2022).
Where two headings read alike, the source gives them in different places.

Assays:
SMN Tudor domain = target: T1, SMN Tudor domain (Homo sapiens, UniProt Q16637); assay: ITC binding to Tudor domain of SMN
T1 construct: SMN (aa 82–147); His (N, cleaved yes); made in house; host or cells: E. coli BL21 (DE3) Codon plus RIL
From the text: (§1) The coding DNA fragments of following Tudor domains were cloned into pET28-MHL vector: SMN (aa 82–147), UHRF1 (aa 126–285), SMNDC1 (aa 53–130), TDRD3 (aa 554–611), SND1 (aa 650–910), TDRD2 (aa 327–420), FXR1 (aa 2–132), PHF1 (aa 28–87), SGF29 (aa 115–293), JMJD2A (aa 897–1101), 53BP1 (aa 1483–1606), SETDB1 (aa 190–410), LBR (aa 1–67), ZGPAT (aa 120–271). The coding regions of chromodomain of CBX7 (aa 8–62), PWWP domain of DNMT3A (aa 275–417), WD40 repeats of WDR5 (aa 24–334) and CW domain of ZCWPW2 (aa 21–78) were also subcloned into pET28-MHL vector to generate N-terminally His-tagged fusion protein. The MBT repeats of L3MBTL1 (aa 200–522) and L3MBTL2 (aa 170–625) were subcloned into pET28GST-LIC vector to generate N-terminally GST-His-tagged fusion protein. All the plasmids were generated by ligase independent cloning (Vazyme Biotech, C112 or ABclonal Technology, RK21020). […] The proteins were further purified by Superdex75 or Superdex200 gel-filtration column (GE Healthcare) in a buffer containing 20 mM Tris-HCl, pH 7.5, 150 mM NaCl and 1 mM DTT. For crystallization experiments, purified proteins were concentrated to 18 mg/mL for SMN, 23 mg/mL for UHRF1 and 10 mg/mL for TDRD3 in the gel-filtration buffer. All the mutations were introduced with the QuikChange II XL site-directed mutagenesis kit (Stratagene, 200522) and confirmed by DNA sequencing. Mutant proteins were also expressed in E. coli BL21 (DE3) Codon plus RIL and purified using the same procedures described above. The molecular weight of all protein samples was measured by mass spectrometry.
(§2) For the ITC measurement, the concentrated proteins were diluted into 20 mM Tris-HCl, pH 7.5, 150 mM NaCl (ITC buffer); the lyophilized compounds were dissolved in the same buffer, and the pH value was adjusted by adding 2 M NaOH or 2 M HCl. The compounds that could not be dissolved in the ITC buffer were dissolved in DMSO with the accessible highest concentration. Compound concentrations were calculated from the mass and the volume of the solvent. For the ITC assay with compound dissolved in DMSO, the protein was diluted by ITC buffer containing same final concentration of DMSO. All measurements were performed in duplicate at 25 °C, using a VP-ITC (MicroCal, Inc.), an iTC-200 (MicroCal, Inc.), or a Nano-ITC (TA, Inc.) microcalorimeter. The protein with a concentration of 50–100 μM was placed in the cell chamber, and the compounds with a concentration of 0.5–2 mM in syringe was injected in 25, 20, or 20 successive injections with a spacing of 180, 150, or 120 s for VP-ITC, iTC-200, or Nano-ITC, respectively, as previously described[30]–[32]. iTC-200 or Nano-ITC data were consistent with those from the VP-ITC instrument, based on ITC results of SMN-compound 1 detected by using all the instruments. Control experiments were performed under identical conditions to determine the heat signals that arise from injection of the compounds into the buffer. Data were fitted using the single-site binding model within the Origin software 7.0 package (MicroCal, Inc.) or the independent model within the Nano-Analyze software package (TA, Inc.).

[1] = target: T2, UHRF1 tandem Tudor domain (TTD) (Homo sapiens, UniProt Q96T88); assay: ITC binding to tandem Tudor domain of UHRF1
T2 construct: UHRF1 (aa 126–285); His (N, cleaved yes); made in house; host or cells: E. coli BL21 (DE3) Codon plus RIL
T2 sequence (Q96T88 126-285): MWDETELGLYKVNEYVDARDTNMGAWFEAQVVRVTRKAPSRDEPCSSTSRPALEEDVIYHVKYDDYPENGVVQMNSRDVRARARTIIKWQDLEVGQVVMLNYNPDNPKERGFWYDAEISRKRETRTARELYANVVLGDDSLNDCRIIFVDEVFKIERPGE
From the text: as §1, §2

SND1 = target: T3, SND1 (Homo sapiens, UniProt Q7KZF4); assay: Biotin-Cmpd 1 pulldown from U2OS cell lysates and western blotting, SND1; assay type: binding; details: U2OS cell lysate, 20 μM biotin-Cmpd 1 (Fig. 2c, Supplementary Fig. 6)
T3 construct: endogenous in cells; host or cells: U2OS
T3 sequence (Q7KZF4 whole entry): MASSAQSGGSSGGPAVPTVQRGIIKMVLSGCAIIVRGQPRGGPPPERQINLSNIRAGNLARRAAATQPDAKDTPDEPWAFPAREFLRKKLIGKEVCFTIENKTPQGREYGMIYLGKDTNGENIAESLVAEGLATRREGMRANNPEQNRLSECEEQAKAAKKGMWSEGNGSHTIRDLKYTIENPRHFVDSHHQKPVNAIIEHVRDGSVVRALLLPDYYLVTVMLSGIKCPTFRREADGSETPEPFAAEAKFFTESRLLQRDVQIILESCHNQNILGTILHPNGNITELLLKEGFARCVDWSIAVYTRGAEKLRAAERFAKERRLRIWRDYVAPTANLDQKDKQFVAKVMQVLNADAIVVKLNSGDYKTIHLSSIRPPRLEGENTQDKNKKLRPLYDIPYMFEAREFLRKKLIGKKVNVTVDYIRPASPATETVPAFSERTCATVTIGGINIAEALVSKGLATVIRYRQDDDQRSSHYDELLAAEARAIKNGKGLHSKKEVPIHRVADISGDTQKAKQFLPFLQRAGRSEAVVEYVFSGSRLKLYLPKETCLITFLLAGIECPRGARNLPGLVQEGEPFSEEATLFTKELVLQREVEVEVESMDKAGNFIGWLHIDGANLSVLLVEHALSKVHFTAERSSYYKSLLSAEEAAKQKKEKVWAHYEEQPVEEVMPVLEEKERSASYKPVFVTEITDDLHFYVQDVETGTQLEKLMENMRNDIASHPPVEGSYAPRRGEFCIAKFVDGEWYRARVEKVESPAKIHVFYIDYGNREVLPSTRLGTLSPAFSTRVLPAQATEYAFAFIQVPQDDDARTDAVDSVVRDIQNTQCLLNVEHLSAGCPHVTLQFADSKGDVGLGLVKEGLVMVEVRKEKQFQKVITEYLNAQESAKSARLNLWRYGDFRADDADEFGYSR
Method: (§3) U2OS cells were lysed in RIPA buffer (140 mM NaCl, 10 mM Tris-HCl, pH 7.6, 1% Triton, 0.1% sodium deoxycholate, 1 mM EDTA) containing protease inhibitors (Roche, 05892791001). The cell lysate was incubated with 20 μM biotin-Cmpd 1 overnight at 4 °C, then 30 μL streptavidin beads (Thermo Fisher, 20353) was added and incubated at 4 °C for 1 h. The beads were then washed with RIPA buffer for 3 times, 10 min/time and loading buffer was added and boiled for 5 min for elution. The eluted samples were separated by SDS-PAGE for western blotting (SMN monoclonal antibody, BD Transduction Laboratories, 610646, clone No. 8, dilution of 1:1000; TDRD3 rabbit monoclonal antibody, Cell signaling, 5492, clone No. 5492, dilution of 1:1000; SND1 polyclonal antibody, Bethyl, A302-883A, dilution of 1:2000; RFP polyclonal antibody, Abcam, ab62341, dilution of 1:1000; GFP monoclonal antibody, Santa Cruz Biotechnology, sc-9996, dilution of 1:1000; Streptavidin-Horseradish Peroxidase (HRP), Invitrogen, SA10001, dilution of 1:5000) as previously described[52],[53]. For the competition analysis, 200 μM biotin-free compound 1 or compound 15 was added at the same time when the biotin-Cmpd 1 was incubated with the cell lysates.

SMN cage mutants = assay: Biotin-Cmpd 1 pulldown from U2OS cell lysates, SMN cage mutants; assay type: binding, human; details: U2OS cell lysate, 20 μM biotin-Cmpd 1 (Fig. 2d)
Method: as §3

TDRD3 = TDRD3 (Homo sapiens, UniProt Q9H7E2); assay: Biotin-Cmpd 1 pulldown from U2OS cell lysates and western blotting, TDRD3; assay type: binding; set-up: endogenous in cells; host or cells: U2OS; details: U2OS cell lysate, 20 μM biotin-Cmpd 1 (Fig. 2c, Supplementary Fig. 6)
TDRD3, sequence (Q9H7E2 whole entry): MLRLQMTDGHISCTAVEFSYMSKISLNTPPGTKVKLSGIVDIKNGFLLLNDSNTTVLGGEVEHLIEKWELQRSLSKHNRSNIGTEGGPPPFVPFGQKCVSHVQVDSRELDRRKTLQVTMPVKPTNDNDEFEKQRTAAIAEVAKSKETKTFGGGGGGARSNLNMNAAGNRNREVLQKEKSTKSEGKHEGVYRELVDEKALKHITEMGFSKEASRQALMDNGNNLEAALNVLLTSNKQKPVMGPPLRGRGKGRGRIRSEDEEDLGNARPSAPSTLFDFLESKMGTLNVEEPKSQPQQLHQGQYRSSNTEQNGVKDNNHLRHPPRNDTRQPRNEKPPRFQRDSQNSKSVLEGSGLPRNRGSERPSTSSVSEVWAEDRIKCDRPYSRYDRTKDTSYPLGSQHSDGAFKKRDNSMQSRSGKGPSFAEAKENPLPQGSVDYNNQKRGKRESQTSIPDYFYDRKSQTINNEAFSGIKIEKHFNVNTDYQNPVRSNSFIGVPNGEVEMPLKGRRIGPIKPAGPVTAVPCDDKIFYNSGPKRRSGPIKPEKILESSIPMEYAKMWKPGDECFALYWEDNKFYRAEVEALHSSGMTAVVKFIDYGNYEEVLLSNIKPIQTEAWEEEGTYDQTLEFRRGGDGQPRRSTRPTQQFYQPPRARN
Method: as §3

SMN = target: T4, SMN (Homo sapiens, UniProt Q16637); assay: Biotin-Cmpd 1 pulldown from U2OS cell lysates and western blotting, SMN; assay type: binding; details: U2OS cell lysate, 20 μM biotin-Cmpd 1, overnight 4 °C (Fig. 2c, Supplementary Fig. 6)
T4 construct: endogenous in cells; host or cells: U2OS
Method: as §3

[2] = target: R1810me2s-POLR2A (Homo sapiens) (UniProt P24928); details: cited from earlier work
[3] = ITC, Tudor domain of SMN wild type, 25 °C
[4] = Supplementary Fig. 12, read-out: Kd, binding affinity (determined by ITC) of different compounds to SMN
[5] = ITC, Tudor domain of SMN wild type, 25 °C, read-out: Kd (SMN)

Kd (SMN) (SMN Tudor domain; [3])	Kd (SMN Tudor domain; [4]) [µM]	Kd (UHRF1) [1]	Molecule	other results
No binding	> 244	No binding	N=C(N)N1CCC(Cc2ccccc2)CC1 [Compound 17, 4-benzylpiperidine-1-carboximidamide]	
No binding	> 244	No binding	C[C@H]1Cc2ccccc2[C@@H]1N [Compound 10, (1R,2S)-2-methyl-2,3-dihydro-1H-inden-1-aminium]	
		Weak binding	Cc1cc(=N)c2ccccc2n1C [Compound 6, 1,2-dimethylquinolin-4(1H)-imine]	Kd (SMN Tudor domain; [5]): 12 ± 2 µM
No binding	> 244	No binding	N=C(N)c1ccc(N)cc1 [Compound 19, 4-aminobenzimidamide]	
		No binding	CCOC(=O)Cn1c2c(c(=N)c3c1CCC3)CCC2 [Compound 3, ethyl 2-(8-imino-2,3,5,6,7,8-hexahydrodicyclopenta[b,e]pyridin-4(1H)-yl)acetate]	Kd (SMN Tudor domain; [5]): 31 ± 2 µM
No binding	> 244	No binding	C[C@H]1CC[C@@H](N)c2ccccc21 [Compound 14, (1R,4S)-4-methyl-1,2,3,4-tetrahydronaphthalen-1-aminium]	
No binding	> 244	No binding	CN1CC[C@H](N)c2ccccc21 [Compound 15, (S)-1-methyl-1,2,3,4-tetrahydroquinolin-4-aminium]	
No binding	> 244	No binding	CCN(CC)c1ccc(C(=N)N)cc1 [Compound 18, 4-(diethylamino)benzimidamide]	
No binding	> 244	No binding	Nc1cccc2ocnc12 [Compound 7, benzo[d]oxazol-4-amine]	
No binding	> 244	No binding	Cn1ccc(=N)cc1 [Compound 20, 1-methylpyridin-4(1H)-imine]	
			N=c1c2c(n(CC(=O)NCCOCCOCCOCCNC(=O)CCCC[C@@H]3SC[C@@H]4NC(=O)N[C@@H]43)c3c1CCC3)CCC2 [biotin-Cmpd 1]	Kd (SMN Tudor domain; Supplementary Figs. 2, 4 and 11a (VP-ITC), read-out: Kd, ITC binding curve, Tudor domain of SMN): 87 ± 12 µM; pulldown of SND1 from cell lysates (SND1): neither TDRD3 nor SND1 could be detected; pulldown of SMN cage mutants from cell lysates (SMN cage mutants): could not efficiently pull down; pulldown of TDRD3 from cell lysates (TDRD3): neither TDRD3 nor SND1 could be detected; pulldown of SMN from cell lysates (SMN): efficiently captured; pulldown of SMN from cell lysates (SMN; listed as Biotin-Cmpd 1): selectively chemiprecipates SMN
No binding	> 244	No binding	CN1CC[C@H](CN)c2ccccc21 [Compound 16, (S)-(1-methyl-1,2,3,4-tetrahydroquinolin-4-yl)methanaminium]	
		No binding	CCCCc1c(CCC)c(=N)c2ccccc2n1C [Compound 5, 2-butyl-1-methyl-3-propylquinolin-4(1H)-imine]	Kd (SMN Tudor domain; [5]): 12 ± 1 µM
No binding	> 244	No binding	Nc1cccc2ccsc12 [Compound 12, benzo[b]thiophen-7-amine]	
			SMN Tudor (from UniProt Q16637)	Kd [2]: 175 µM
		No binding	N=c1c2c(n(Cc3ccc(F)cc3)c3c1CCC3)CCC2 [Compound 4, 4-(4-fluorobenzyl)-2,3,4,5,6,7-hexahydrodicyclopenta[b,e]pyridin-8(1H)-imine]	Kd (SMN Tudor domain; [5]): 13 ± 1 µM
No binding	> 244	No binding	C[C@H]1CCc2ccccc2[C@@H]1N [Compound 13, (1R,2S)-2-methyl-1,2,3,4-tetrahydronaphthalen-1-aminium]	

Molecule	Kd (SMN) (SMN Tudor domain; [3])	Kd (SMN Tudor domain; [4]) [µM]	Kd (UHRF1) [1]	other results
NC[C@H]1CCc2ccccc21 [Compound 11, (S)-(2,3-dihydro-1H-inden-1-yl)methanaminium]	No binding	> 244	No binding	
Nc1cccc2cccnc12 [Compound 8, quinolin-8-amine]	No binding		No binding	Kd (SMN Tudor domain): > 244 µM
CN[C@@H]1CCc2ccccc21 [Compound 9, (R)-N-methyl-2,3-dihydro-1H-inden-1-aminium]	No binding	> 244	No binding	
